This note sets out measurements from ChEMBL document CHEMBL3407331, “Discovery of AM-7209, a potent and selective 4-amidobenzoic acid inhibitor of the MDM2-p53 interaction” (J Med Chem, 2014).

One may read the IC50 as the concentration that inhibits the measured activity by half. By inhibition is commonly meant the share of the control response that was lost under treatment.

For one data set, the system named is SJSA-1. Briefly: cells. The note with it: Homo sapiens, SJSA-1, 16 h.
Data set [1] has as its target T1, CYP3A4 (Homo sapiens, UniProt P08684). The data set can be described thus: Time-dependent inhibition of CYP3A4 (unknown origin) assessed as remaining activity at 10 uM after 30 mins. The data set is classed as ADME. The note with it: read-out: Activity.
In the next data set the target is T2, PXR (NR1I2) (Homo sapiens, UniProt O75469).
T2 sequence (O75469 whole entry): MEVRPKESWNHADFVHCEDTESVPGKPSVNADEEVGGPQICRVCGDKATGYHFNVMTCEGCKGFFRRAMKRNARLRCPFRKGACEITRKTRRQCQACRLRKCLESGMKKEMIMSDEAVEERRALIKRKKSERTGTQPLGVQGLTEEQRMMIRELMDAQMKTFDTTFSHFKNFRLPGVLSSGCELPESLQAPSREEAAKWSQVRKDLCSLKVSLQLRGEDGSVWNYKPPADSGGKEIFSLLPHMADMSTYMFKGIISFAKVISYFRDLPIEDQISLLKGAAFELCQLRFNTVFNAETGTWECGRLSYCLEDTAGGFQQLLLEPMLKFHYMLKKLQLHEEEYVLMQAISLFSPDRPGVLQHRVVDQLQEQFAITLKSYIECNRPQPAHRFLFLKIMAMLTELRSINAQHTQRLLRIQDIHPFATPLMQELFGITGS
The data set can be described thus: Activation of human PXR at 2 uM relative to control. The conditions noted are these: read-out: Activity. It is filed as ADME.

Data set [2] has as its target T1, CYP3A4. The data set can be described thus: Inhibition of CYP3A4 (unknown origin) at 3 uM. It is filed as ADME.
In data set [3] the target is T3, E3 ubiquitin-protein ligase Mdm2 (Homo sapiens, UniProt Q00987).
Data set [4] addresses T3, E3 ubiquitin-protein ligase Mdm2. The source holds these as a separate data set.
The next data set relates to Hepatocyte. Briefly: cells. The note with it: Homo sapiens.
The nature of data set [5]: Drug metabolism in human hepatocytes treated with AMG 232 at 10 uM after 2 hrs by LC/MS analysis. The data set is classed as ADME, cell-based, Hepatocyte.
Data set [6] can be described thus: Drug metabolism in rat hepatocytes treated with AMG 232 at 10 uM after 2 hrs by LC/MS analysis. The data set is classed as ADME, cell-based, Hepatocyte.
Data set [7] can be described thus: Drug metabolism in dog hepatocytes treated with 4-(2-((3R,5R,6S)-1-((S)-2-(tert-Butylsulfonyl)-1-cyclopropylethyl)-6-(4-chloro-3-fluorophenyl)-5-(3-chlorophenyl)-3-methyl-2-oxopiperidin-3-yl)acetamido)-2-methoxybenzoic acid at 10 uM after 2 hrs by LC/MS analysis. The data set is classed as ADME, cell-based, Canis lupus familiaris, Hepatocyte.
Data set [8] can be described thus: Drug metabolism in human hepatocytes treated with 4-(2-((3R,5R,6S)-1-((S)-2-(tert-Butylsulfonyl)-1-cyclopropylethyl)-6-(4-chloro-3-fluorophenyl)-5-(3-chlorophenyl)-3-methyl-2-oxopiperidin-3-yl)acetamido)-2-methoxybenzoic acid at 10 uM after 2 hrs by LC/MS analysis. The data set is classed as ADME, cell-based, Hepatocyte.
The nature of data set [9]: Drug metabolism in cynomolgus monkey hepatocytes treated with AMG 232 at 10 uM after 2 hrs by LC/MS analysis. The data set is classed as ADME, cell-based, Macaca fascicularis, Hepatocyte.
A short description of data set [10]: Drug metabolism in cynomolgus monkey hepatocytes treated with 4-(2-((3R,5R,6S)-1-((S)-2-(tert-Butylsulfonyl)-1-cyclopropylethyl)-6-(4-chloro-3-fluorophenyl)-5-(3-chlorophenyl)-3-methyl-2-oxopiperidin-3-yl)acetamido)-2-methoxybenzoic acid at 10 uM after 2 hrs by LC/MS analysis. It is filed as ADME, cell-based, Macaca fascicularis, Hepatocyte.
Data set [11] is described as follows: Drug metabolism in rat hepatocytes treated with 4-(2-((3R,5R,6S)-1-((S)-2-(tert-Butylsulfonyl)-1-cyclopropylethyl)-6-(4-chloro-3-fluorophenyl)-5-(3-chlorophenyl)-3-methyl-2-oxopiperidin-3-yl)acetamido)-2-methoxybenzoic acid at 10 uM after 2 hrs by LC/MS analysis. It is filed as ADME, cell-based, Hepatocyte.
A short description of data set [12]: Drug metabolism in dog hepatocytes treated with AMG 232 at 10 uM after 2 hrs by LC/MS analysis. The data set is classed as ADME, cell-based, Canis lupus familiaris, Hepatocyte.

T1 sequence (P08684 whole entry): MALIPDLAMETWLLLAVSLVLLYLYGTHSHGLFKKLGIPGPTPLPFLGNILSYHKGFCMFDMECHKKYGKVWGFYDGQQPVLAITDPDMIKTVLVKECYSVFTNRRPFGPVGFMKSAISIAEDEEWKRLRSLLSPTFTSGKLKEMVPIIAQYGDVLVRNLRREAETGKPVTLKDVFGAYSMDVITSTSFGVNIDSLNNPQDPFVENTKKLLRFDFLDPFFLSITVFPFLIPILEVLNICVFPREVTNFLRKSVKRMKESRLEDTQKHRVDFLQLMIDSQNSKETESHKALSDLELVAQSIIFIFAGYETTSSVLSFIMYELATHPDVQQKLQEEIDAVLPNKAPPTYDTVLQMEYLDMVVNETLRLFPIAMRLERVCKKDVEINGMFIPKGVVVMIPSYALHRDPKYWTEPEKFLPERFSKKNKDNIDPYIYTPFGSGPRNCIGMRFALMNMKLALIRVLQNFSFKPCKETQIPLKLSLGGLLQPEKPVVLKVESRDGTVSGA
T3 sequence (Q00987 whole entry): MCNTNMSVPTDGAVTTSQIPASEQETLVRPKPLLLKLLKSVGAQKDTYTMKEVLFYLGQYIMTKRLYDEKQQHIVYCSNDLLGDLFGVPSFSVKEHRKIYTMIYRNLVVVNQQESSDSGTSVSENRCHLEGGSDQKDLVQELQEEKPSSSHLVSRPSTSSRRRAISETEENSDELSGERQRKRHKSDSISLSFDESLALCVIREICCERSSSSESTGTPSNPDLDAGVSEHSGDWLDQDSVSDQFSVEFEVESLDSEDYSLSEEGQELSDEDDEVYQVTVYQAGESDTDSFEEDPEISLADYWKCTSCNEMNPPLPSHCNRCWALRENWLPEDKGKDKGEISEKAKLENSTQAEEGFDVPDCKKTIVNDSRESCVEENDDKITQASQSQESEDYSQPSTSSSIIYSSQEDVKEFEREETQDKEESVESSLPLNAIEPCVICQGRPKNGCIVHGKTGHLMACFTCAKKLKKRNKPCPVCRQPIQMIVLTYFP

Molecule `CC(C)(C)S(=O)(=O)C[C@H](C1CC1)N1C(=O)[C@@](C)(CC(=O)Nc2ccccc2C(=O)O)C[C@H](c2cccc(Cl)c2)[C@H]1c1ccc(Cl)cc1` came in with an IC50 with SJSA-1 of 45 nM.

As to `CC(C)(C)S(=O)(=O)C[C@H](C1CC1)N1C(=O)[C@@](C)(CC(=O)NC23CCC(C(=O)O)(CC2)CC3)C[C@H](c2cccc(Cl)c2)[C@H]1c1ccc(Cl)cc1`, at CYP3A4 [1], the activity at 0.5 h, 10 µM worked out at 75%. At PXR (NR1I2), the activity at 2 µM is 0%. The molecule further showed an inhibition at 3 µM on CYP3A4 [2] of less than 10%. The molecule further displayed an IC50 with SJSA-1 of 5.9 nM.

On to `COc1cc(NC(=O)C[C@@]2(C)C[C@H](c3cccc(Cl)c3F)[C@@H](c3ccc(Cl)cc3)N([C@H](CS(=O)(=O)C(C)(C)C)C3CC3)C2=O)ccc1C(=O)O`, for which the activity at 0.5 h, 10 µM at CYP3A4 [1] worked out at 72%. On PXR (NR1I2), the activity at 2 µM stood at 0%. On CYP3A4 [2], this molecule had an inhibition at 3 µM of 14%.

Turning to `CC(C)(C)S(=O)(=O)C[C@H](C1CC1)N1C(=O)[C@@](C)(CC(=O)O)C[C@H](c2cccc(Cl)c2F)[C@H]1c1ccc(Cl)cc1`, the IC50 in data set [3] is less than 0.1 nM; in data set [4] it was 6.4 nM; with SJSA-1, 0.8 nM. The molecule further displayed a CLint in the data set with Hepatocyte of 27 µL/min/10⁶ cells.

In turn, `CC(C)(C)S(=O)(=O)C[C@H](C1CC1)N1C(=O)[C@@](C)(CC(=O)N[C@H]2CC[C@H](C(=O)O)CC2)C[C@H](c2cccc(Cl)c2)[C@H]1c1ccc(Cl)cc1` had an IC50 with SJSA-1 of 7.5 nM.

`CC(C)(C)S(=O)(=O)C[C@H](C1CC1)N1C(=O)[C@@](C)(CC(=O)N2CCC(C(=O)O)CC2)C[C@H](c2cccc(Cl)c2)[C@H]1c1ccc(Cl)cc1` showed an IC50 with SJSA-1 of 11.7 nM.

In the case of `COc1cc(C(=O)O)ccc1NC(=O)C[C@@]1(C)C[C@H](c2cccc(Cl)c2)[C@@H](c2ccc(Cl)cc2)N([C@H](CS(=O)(=O)C(C)(C)C)C2CC2)C1=O`, 6.9 nM corresponded to half-maximal inhibition with SJSA-1 (IC50).

`CN(C(=O)C[C@@]1(C)C[C@H](c2cccc(Cl)c2)[C@@H](c2ccc(Cl)cc2)N([C@H](CS(=O)(=O)C(C)(C)C)C2CC2)C1=O)c1ccc(C(=O)O)cc1` showed an IC50 with SJSA-1 of 198 nM.

In the data set with SJSA-1, `CC(C)(C)S(=O)(=O)C[C@H](C1CC1)N1C(=O)[C@@](C)(CC(=O)N2CC(C(=O)O)C2)C[C@H](c2cccc(Cl)c2)[C@H]1c1ccc(Cl)cc1` came in with an IC50 of 46 nM.

With `CC(C)[C@@H](CS(=O)(=O)C(C)C)N1C(=O)[C@@](C)(CC(=O)OC2O[C@H](C(=O)O)[C@@H](O)[C@H](O)[C@H]2O)C[C@H](c2cccc(Cl)c2)[C@H]1c1ccc(Cl)cc1` (stereo partly drawn), the Drug metabolism entry in data set [5], in data set [6], in [7], in data set [8], in data set [9] and in data set [10] was “metabolite_detected” in each case. The Drug metabolism entry in data set [11] and in data set [12] was “metabolite_detected” in each case.

Consider `CC(C)(C)S(=O)(=O)C[C@H](C1CC1)N1C(=O)[C@@](C)(CC(=O)O)C[C@H](c2cccc(Cl)c2)[C@H]1c1ccc(Cl)c(F)c1`, for which the CLint with Hepatocyte stood at 26 µL/min/10⁶ cells.

On to `CC(C)(C)S(=O)(=O)C[C@H](C1CC1)N1C(=O)[C@@](C)(CC(=O)N[C@H]2C[C@H](C(=O)O)C2)C[C@H](c2cccc(Cl)c2)[C@H]1c1ccc(Cl)cc1`, for which, in the data set with SJSA-1, inhibition was half-maximal at 13.5 nM (IC50).

In the data set on SJSA-1, `CC(C)(C)S(=O)(=O)C[C@H](C1CC1)N1C(=O)[C@@](C)(CC(=O)N[C@H]2CC[C@@H](C(=O)O)CC2)C[C@H](c2cccc(Cl)c2)[C@H]1c1ccc(Cl)cc1` returned an IC50 of 17 nM.

Turning to `COc1cc(NC(=O)C[C@@]2(C)C[C@H](c3cccc(Cl)c3)[C@@H](c3ccc(Cl)cc3)N([C@H](CS(=O)(=O)C(C)(C)C)C3CC3)C2=O)ccc1C(N)=O`, 15 nM corresponded to half-maximal inhibition in the data set with SJSA-1 (IC50).

Turning to `CC(C)(C)S(=O)(=O)C[C@H](C1CC1)N1C(=O)[C@@](C)(CC(=O)Nc2cccc(C(=O)O)c2)C[C@H](c2cccc(Cl)c2)[C@H]1c1ccc(Cl)cc1`, it took 9.7 nM to reach half-maximal inhibition with SJSA-1 (IC50).

`COc1cc(NC(=O)C[C@@]2(C)C[C@H](c3cccc(Cl)c3)[C@@H](c3ccc(Cl)cc3)N([C@H](CS(=O)(=O)C(C)(C)C)C3CC3)C2=O)ccc1C(=O)O`: the activity at 0.5 h, 10 µM on CYP3A4 [1] was 85%. Moreover, at PXR (NR1I2), the activity at 2 µM is 14%. The same molecule displayed an inhibition at 3 µM against CYP3A4 [2] of 14%. Besides, half-maximal inhibition in the data set on SJSA-1 (IC50) required 1.9 nM.

As to `CC(C)(C)S(=O)(=O)C[C@H](C1CC1)N1C(=O)[C@@](C)(CC(=O)Nc2ccc(C#N)cc2)C[C@H](c2cccc(Cl)c2)[C@H]1c1ccc(Cl)cc1`, half-maximal inhibition with SJSA-1 (IC50) required 138 nM.

In the data set on SJSA-1, `CC(C)(C)S(=O)(=O)C[C@H](C1CC1)N1C(=O)[C@@](C)(CC(=O)N[C@H]2C[C@@H](C(=O)O)C2)C[C@H](c2cccc(Cl)c2)[C@H]1c1ccc(Cl)cc1` showed an IC50 of 22 nM.

Turning to `CC1(C(=O)O)CCN(C(=O)C[C@@]2(C)C[C@H](c3cccc(Cl)c3)[C@@H](c3ccc(Cl)cc3)N([C@H](CS(=O)(=O)C(C)(C)C)C3CC3)C2=O)CC1`, the IC50 in the data set with SJSA-1 was determined as 6.8 nM.

`CC(C)(C)S(=O)(=O)C[C@H](C1CC1)N1C(=O)[C@@](C)(CC(=O)Nc2ccc(C(=O)O)cn2)C[C@H](c2cccc(Cl)c2)[C@H]1c1ccc(Cl)cc1` registered an IC50 with SJSA-1 of 9 nM.

For the molecule `CC(C)(C)S(=O)(=O)C[C@H](C1CC1)N1C(=O)[C@@](C)(CC(=O)Nc2ccc(C(=O)O)cc2)C[C@H](c2cccc(Cl)c2)[C@H]1c1ccc(Cl)cc1`, the activity at 0.5 h, 10 µM at CYP3A4 [1] worked out at 78%. For the same molecule, at PXR (NR1I2), the activity at 2 µM amounted to 0%. This molecule also had an inhibition at 3 µM at CYP3A4 [2] of less than 10%. Besides, 2.9 nM corresponded to half-maximal inhibition in the data set with SJSA-1 (IC50).

In the case of `CC(C)(C)S(=O)(=O)C[C@H](C1CC1)N1C(=O)[C@@](C)(CC(=O)Nc2ccc(CC(=O)O)cc2)C[C@H](c2cccc(Cl)c2)[C@H]1c1ccc(Cl)cc1`, the IC50 with SJSA-1 came out at 2.7 nM.
